Measurements taken from PubChem BioAssay (NCI).
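Here, GI50 denotes the concentration required for 50% inhibition of growth. TGI marks complete inhibition of growth.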

Key:
Assay in all cases: growth of human tumour cells (NCI), 384-well format
786-0 renal = system: 786-0 renal
A498 renal = system: A498 renal
A549 NSCLC = system: A549 NSCLC
ACHN renal = system: ACHN renal
BT-549 breast = system: BT-549 breast
CAKI-1 renal = system: CAKI-1 renal
CCRF-CEM leukemia = system: CCRF-CEM leukemia
COLO 205 colon = system: COLO 205 colon
DU-145 prostate = system: DU-145 prostate
EKVX NSCLC = system: EKVX NSCLC
HCC-2998 colon = system: HCC-2998 colon
HCT-116 colon = system: HCT-116 colon
HCT-15 colon = system: HCT-15 colon
HL-60(TB) leukemia = system: HL-60(TB) leukemia
HOP-62 NSCLC = system: HOP-62 NSCLC
HOP-92 NSCLC = system: HOP-92 NSCLC
HS 578T breast = system: HS 578T breast
HT29 colon = system: HT29 colon
IGROV1 ovarian = system: IGROV1 ovarian
KM12 colon = system: KM12 colon
LOX IMVI melanoma = system: LOX IMVI melanoma
M14 melanoma = system: M14 melanoma
MALME-3M melanoma = system: MALME-3M melanoma
MDA-MB-435 melanoma = system: MDA-MB-435 melanoma
MDA-MB-468 breast = system: MDA-MB-468 breast
MOLT-4 leukemia = system: MOLT-4 leukemia
NCI-H226 lung = system: NCI-H226 lung
NCI-H23 lung = system: NCI-H23 lung
NCI-H322M lung = system: NCI-H322M lung
NCI-H460 NSCLC = system: NCI-H460 NSCLC
NCI-H522 lung = system: NCI-H522 lung
NCI/ADR-RES ovarian = system: NCI/ADR-RES ovarian
OVCAR-3 ovarian = system: OVCAR-3 ovarian
OVCAR-4 ovarian = system: OVCAR-4 ovarian
OVCAR-5 ovarian = system: OVCAR-5 ovarian
OVCAR-8 ovarian = system: OVCAR-8 ovarian
PC-3 prostate = system: PC-3 prostate
RPMI-8226 leukemia = system: RPMI-8226 leukemia
RXF 393 renal = system: RXF 393 renal
SF-268 CNS = system: SF-268 CNS
SF-295 CNS = system: SF-295 CNS
SF-539 CNS = system: SF-539 CNS
SK-MEL-28 melanoma = system: SK-MEL-28 melanoma
SK-MEL-5 melanoma = system: SK-MEL-5 melanoma
SK-OV-3 ovarian = system: SK-OV-3 ovarian
SN12C renal = system: SN12C renal
SNB-19 CNS = system: SNB-19 CNS
SNB-75 CNS = system: SNB-75 CNS
SW-620 colon = system: SW-620 colon
T-47D breast = system: T-47D breast
TK-10 renal = system: TK-10 renal
U251 glioblastoma = system: U251 glioblastoma
UACC-257 melanoma = system: UACC-257 melanoma
UACC-62 melanoma = system: UACC-62 melanoma
UO-31 renal = system: UO-31 renal

Compound: Cc1cc(Cl)cc(OCCn2cc(F)cn2)c1-c1nc(N)nc2c1CN(C(=O)NCC(C)(F)F)C2
- GI50 (786-0 renal): 59.3 nM
- TGI (786-0 renal): 5810 nM
- GI50 (A498 renal): 149 nM
- TGI (A498 renal): > 100000 nM
- GI50 (A549 NSCLC): 45.6 nM
- TGI (A549 NSCLC): > 100000 nM
- GI50 (ACHN renal): 389 nM
- TGI (ACHN renal): > 100000 nM
- GI50 (BT-549 breast): 36.3 nM
- TGI (BT-549 breast): 769 nM
- GI50 (CAKI-1 renal): 163 nM
- TGI (CAKI-1 renal): > 100000 nM
- GI50 (CCRF-CEM leukemia): 29.1 nM
- TGI (CCRF-CEM leukemia): 94.1 nM
- GI50 (COLO 205 colon): 30.6 nM
- TGI (COLO 205 colon): 136 nM
- GI50 (DU-145 prostate): 40.5 nM
- TGI (DU-145 prostate): 1750 nM
- GI50 (EKVX NSCLC): 90.2 nM
- TGI (EKVX NSCLC): 31100 nM
- GI50 (HCC-2998 colon): 21.5 nM
- TGI (HCC-2998 colon): 71.4 nM
- GI50 (HCT-116 colon): 68.5 nM
- TGI (HCT-116 colon): 18200 nM
- GI50 (HCT-15 colon): 339 nM
- TGI (HCT-15 colon): > 100000 nM
- GI50 (HL-60(TB) leukemia): 32.5 nM
- TGI (HL-60(TB) leukemia): 71.2 nM
- GI50 (HOP-62 NSCLC): 65.1 nM
- TGI (HOP-62 NSCLC): > 100000 nM
- GI50 (HOP-92 NSCLC): 73.3 nM
- TGI (HOP-92 NSCLC): 279 nM
- GI50 (HS 578T breast): 46.8 nM
- TGI (HS 578T breast): 302 nM
- GI50 (HT29 colon): 35 nM
- TGI (HT29 colon): 16800 nM
- GI50 (IGROV1 ovarian): 40.2 nM
- TGI (IGROV1 ovarian): 443 nM
- GI50 (KM12 colon): 37.3 nM
- TGI (KM12 colon): 802 nM
- GI50 (LOX IMVI melanoma): 35.7 nM
- TGI (LOX IMVI melanoma): 129 nM
- GI50 (M14 melanoma): 40.8 nM
- TGI (M14 melanoma): > 100000 nM
- GI50 (MALME-3M melanoma): 30.7 nM
- TGI (MALME-3M melanoma): 85.2 nM
- GI50 (MDA-MB-435 melanoma): 83.1 nM
- TGI (MDA-MB-435 melanoma): > 100000 nM
- GI50 (MDA-MB-468 breast): 34 nM
- TGI (MDA-MB-468 breast): 76 nM
- GI50 (MOLT-4 leukemia): 17.5 nM
- TGI (MOLT-4 leukemia): 34.7 nM
- GI50 (NCI-H226 lung): 174 nM
- TGI (NCI-H226 lung): 842 nM
- GI50 (NCI-H23 lung): 32.1 nM
- TGI (NCI-H23 lung): 95.4 nM
- GI50 (NCI-H322M lung): 136 nM
- TGI (NCI-H322M lung): > 100000 nM
- GI50 (NCI-H460 NSCLC): 34.2 nM
- TGI (NCI-H460 NSCLC): 106 nM
- GI50 (NCI-H522 lung): 23.9 nM
- TGI (NCI-H522 lung): 45.7 nM
- GI50 (NCI/ADR-RES ovarian): 5110 nM
- TGI (NCI/ADR-RES ovarian): 63000 nM
- GI50 (OVCAR-3 ovarian): 41.6 nM
- TGI (OVCAR-3 ovarian): 939 nM
- GI50 (OVCAR-4 ovarian): > 100000 nM
- TGI (OVCAR-4 ovarian): > 100000 nM
- GI50 (OVCAR-5 ovarian): 115 nM
- TGI (OVCAR-5 ovarian): > 100000 nM
- GI50 (OVCAR-8 ovarian): 43.1 nM
- TGI (OVCAR-8 ovarian): 181 nM
- GI50 (PC-3 prostate): 86.7 nM
- TGI (PC-3 prostate): 533 nM
- GI50 (RPMI-8226 leukemia): 57 nM
- TGI (RPMI-8226 leukemia): 305 nM
- GI50 (RXF 393 renal): 41.3 nM
- TGI (RXF 393 renal): 842 nM
- GI50 (SF-268 CNS): 24 nM
- TGI (SF-268 CNS): 63.2 nM
- GI50 (SF-295 CNS): 58.9 nM
- TGI (SF-295 CNS): 230 nM
- GI50 (SF-539 CNS): 26.1 nM
- TGI (SF-539 CNS): 62.8 nM
- GI50 (SK-MEL-28 melanoma): 71.5 nM
- TGI (SK-MEL-28 melanoma): > 100000 nM
- GI50 (SK-MEL-5 melanoma): 47.2 nM
- TGI (SK-MEL-5 melanoma): > 100000 nM
- GI50 (SK-OV-3 ovarian): 121 nM
- TGI (SK-OV-3 ovarian): > 100000 nM
- GI50 (SN12C renal): 51.6 nM
- TGI (SN12C renal): 316 nM
- GI50 (SNB-19 CNS): 122 nM
- TGI (SNB-19 CNS): 24400 nM
- GI50 (SNB-75 CNS): 152 nM
- TGI (SNB-75 CNS): 664 nM
- GI50 (SW-620 colon): 38.5 nM
- TGI (SW-620 colon): 268 nM
- GI50 (T-47D breast): 43.8 nM
- TGI (T-47D breast): 307 nM
- GI50 (TK-10 renal): 275 nM
- TGI (TK-10 renal): 12700 nM
- GI50 (U251 glioblastoma): 37.9 nM
- TGI (U251 glioblastoma): 130 nM
- GI50 (UACC-257 melanoma): 394 nM
- TGI (UACC-257 melanoma): > 100000 nM
- GI50 (UACC-62 melanoma): 54.3 nM
- TGI (UACC-62 melanoma): 300 nM
- GI50 (UO-31 renal): 394 nM
- TGI (UO-31 renal): 56100 nM
